Values of other authors in patent publication US20260001962A1, “COMBINATION THERAPY METHODS WITH T-CELL ENGAGING MOLECULES FOR TREATMENT OF PROSTATE CANCER” (AMGEN INC., priority 2022, published 2026).
“Also recorded” adds a separate entry of the source.

Experiments:
prostate cancer cells [1] = settings: in vitro; Deegen et al. 2021
prostate cancer cells [2] = settings: reported in literature

For `CO[C@H]1C(=O)[C@]2(C)[C@@H](OC)C[C@H]3OC[C@@]3(OC(C)=O)[C@H]2[C@H](OC(=O)c2ccccc2)[C@]2(O)C[C@H](OC(=O)[C@H](O)[C@@H](NC(=O)OC(C)(C)C)c3ccccc3)C(C)=C1C2(C)C` [Cabazitaxel], the “increase in median survival compared with mitoxantrone” value (mCRPC patients; mCRPC) is listed as 2.4 months.
For `[223Ra]` [Radium-223], the survival (mCRPC patients; patients with bone metastases, combined with best standard care, vs 11.3) is listed as 14.9 months.
In the case of `CNC(=O)c1ccc(N2C(=S)N(c3ccc(C#N)c(C(F)(F)F)c3)C(=O)C2(C)C)cc1F` [enzalutamide], the OS (mCRPC patients; first line mCRPC setting, vs 31.3) is given as 35.3 months, the “cytotoxicity of prostate cancer cells induced by PSMA-targeted T-cell engager (AMG 160)” value (prostate cancer cells [1]) is given as “enhances cytotoxicity of prostate cancer cells; also recorded: enhance AMG 160-mediated cytotoxicity of prostate cancer cells” and the “expression of PSMA on prostate cancer cells” value (prostate cancer cells [2]) is given as “rapidly upregulate expression of PSMA”.
